One may read the IC50 as the concentration at which inhibition is half-maximal. Lower therefore signals higher potency.

Consider eleven compounds from patent publication US20220235064A1 (WELLMARKER BIO CO., LTD., priority 2019, published 2022).

Bounds are passed on as bounds.

The assay deals with T1, RON tyrosine kinase (Homo sapiens, UniProt Q04912).
T1 construct: purchased Carna Bioscience
T1 sequence (Q04912 25-1400): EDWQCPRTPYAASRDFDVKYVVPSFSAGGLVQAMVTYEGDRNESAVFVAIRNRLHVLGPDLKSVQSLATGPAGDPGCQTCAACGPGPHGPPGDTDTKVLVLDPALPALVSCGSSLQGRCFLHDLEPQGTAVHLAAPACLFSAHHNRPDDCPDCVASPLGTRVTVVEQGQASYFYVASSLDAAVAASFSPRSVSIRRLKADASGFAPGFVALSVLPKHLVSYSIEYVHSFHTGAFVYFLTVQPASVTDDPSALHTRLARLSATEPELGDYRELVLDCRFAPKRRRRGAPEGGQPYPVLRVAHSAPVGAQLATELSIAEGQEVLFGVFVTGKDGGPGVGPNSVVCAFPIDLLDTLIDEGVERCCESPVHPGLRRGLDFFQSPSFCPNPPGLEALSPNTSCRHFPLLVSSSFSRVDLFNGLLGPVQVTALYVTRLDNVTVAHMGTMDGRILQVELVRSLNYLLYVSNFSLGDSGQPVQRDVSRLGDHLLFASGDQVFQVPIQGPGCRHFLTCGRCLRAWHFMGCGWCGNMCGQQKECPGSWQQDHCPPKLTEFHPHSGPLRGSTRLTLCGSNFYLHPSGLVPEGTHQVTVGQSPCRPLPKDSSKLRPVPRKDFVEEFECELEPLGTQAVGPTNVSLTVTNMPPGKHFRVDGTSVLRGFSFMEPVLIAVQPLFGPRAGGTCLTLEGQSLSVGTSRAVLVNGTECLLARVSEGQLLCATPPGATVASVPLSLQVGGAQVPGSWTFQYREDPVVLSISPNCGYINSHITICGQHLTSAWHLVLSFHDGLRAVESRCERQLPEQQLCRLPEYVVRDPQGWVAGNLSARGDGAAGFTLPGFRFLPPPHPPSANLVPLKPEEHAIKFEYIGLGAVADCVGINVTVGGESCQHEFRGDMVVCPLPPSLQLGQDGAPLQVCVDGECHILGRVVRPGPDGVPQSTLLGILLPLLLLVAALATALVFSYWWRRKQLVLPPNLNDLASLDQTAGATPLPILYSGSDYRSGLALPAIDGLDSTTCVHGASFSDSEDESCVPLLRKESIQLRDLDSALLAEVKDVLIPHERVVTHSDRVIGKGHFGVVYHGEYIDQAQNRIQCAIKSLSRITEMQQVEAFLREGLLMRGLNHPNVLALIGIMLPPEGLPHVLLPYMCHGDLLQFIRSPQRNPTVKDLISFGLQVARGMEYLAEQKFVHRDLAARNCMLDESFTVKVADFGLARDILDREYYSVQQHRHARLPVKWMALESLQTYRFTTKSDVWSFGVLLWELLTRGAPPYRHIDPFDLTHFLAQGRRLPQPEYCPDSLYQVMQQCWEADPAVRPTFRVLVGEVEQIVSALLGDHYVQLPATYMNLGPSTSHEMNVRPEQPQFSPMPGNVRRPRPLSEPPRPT
As to the kind of experiment: Enzyme inhibitory activity against RON tyrosine kinase (TR-FRET). In kind it is biochemical. The conditions noted are these: RON (Carna Bioscience). As to the method:
Experimental Example 1: Measurement of Enzyme Inhibitory Activity Against RON Tyrosine Kinase
To measure enzyme inhibitory activity of the example compounds against RON, IC50 values of the compounds were measured using fluorescence resonance energy transfer (FRET).
Specifically, first, RON (Carna Bioscience) was diluted in a kinase assay buffer (50 mM HEPES pH 7.5, 1 mM EGTA, 10 mM MgCl2, 2 mM DTT, and 0.01% Tween-20) to be at a concentration (0.4 nM) that is twice the final reaction concentration. The dilute was added to a 384-well-plate at 5 μl per well. Each of the example compounds was prepared at a concentration of 1 mM in 100% DMSO and diluted 8 times in a stepwise manner through 10-fold dilution. Each compound was diluted in a kinase assay buffer to be at a concentration that is 4 times the final reaction concentration. The dilute was added to a 384-well-plate at 2.5 μl per well, and incubation was performed at room temperature for 15 minutes.
Thereafter, an ATP solution (Sigma Aldrich) prepared at a concentration of 0.25 M was diluted in a kinase assay buffer to be at a concentration (60 μM) that is 4 times the final reaction concentration. Dilution of a tyrosine peptide substrate (Perkin-Elmer) was performed therein to be at a concentration (400 nM) that is 4 times the final reaction concentration. The dilute was added to a 384-well-plate at 2.5 µl per well. Reaction was allowed to proceed for 60 minutes by incubating the 384-well-plate at room temperature. Thereafter, EDTA (Sigma Aldrich) was diluted in a TR-FRET detection buffer (Perkin-Elmer) to be at a concentration (20 mM) that is twice the final reaction concentration. Dilution of a Europium-containing phosphotyrosine antibody (Perkin-Elmer) was performed in the diluted EDTA solution to be at a concentration (4 nM) that is twice the final reaction concentration, so that a stop solution for RON reaction was prepared.
The stop solution was added to the 384-well-plate at 10 μl per well to quench the reaction, and incubation was performed at room temperature for 60 minutes. Then, the 384-well-plate was read on a Victor X5 (Perkin-Elmer) plate reader. Here, the excitation wavelength was 340 nm, and the emission wavelengths were 620 nm and 665 nm. An IC50 value of the compound was derived using GraphPad Prism 5 program, in which the IC50 was derived by expressing emission energy at the wavelength of 665 nm as a function of the compound concentration.
On the technique in general: TR-FRET usually uses a lanthanide donor and a delayed reading to cut background.
`O=C(Nc1ccc(Oc2ccnc3cc(-c4ccc(CN5CCOCC5)cn4)sc23)c(F)c1)c1c2c(cn(-c3ccc(F)cc3)c1=O)CCC2` [Example 7] returned an IC50 of 34.9 nM. Next, `O=C(Nc1ccc(Oc2ccnc3cc(OCCN4CCOCC4)ccc23)c(F)c1)c1c2c(cn(-c3ccc(F)cc3)c1=O)CCO2` [Example 157, N-(3-Fluoro-4-((7-(2-morpholinylethoxy)quinolin-4-yl)oxy)phenyl)-5-(4-fluorophenyl)-6-oxo-2,3,5,6-tetrahydrofuro[3,2-c]pyridine-7-carboxamide]: 1.32 nM; `Nc1cc(Oc2ccc(NC(=O)c3c4c(cn(-c5ccc(F)cc5)c3=O)CCO4)cc2F)ccn1` [Example 56, N-(4-((2-Aminopyridin-4-yl)oxy)-3-fluorophenyl)-5-(4-fluorophenyl)-6-oxo-2,3,5,6-tetrahydrofuro[3,2-c]pyridine-7-carboxamide]: 11.9 nM. Turning to `O=C(Nc1ccc(Oc2ccnc3cc(OCCN4CCOCC4)c(C(F)(F)F)cc23)c(F)c1)c1c2c(cn(-c3ccc(F)cc3)c1=O)CCO2` [Example 169, N-(3-Fluoro-4-((7-(2-morpholinoethoxy)-6-(trifluoromethyl)quinolin-4-yl)oxy)phenyl)-5-(4-fluorophenyl)-6-oxo-2,3,5,6-tetrahydrofuro[3,2-c]pyridine-7-carboxamide], the IC50 was more than 100 nM. In the case of `O=C(Nc1ccc(Oc2ccnc3cc(OCCCN4CCOCC4)ccc23)c(F)c1)c1c2c(cn(-c3ccc(F)cc3)c1=O)CCC2` [Example 159, N-(3-Fluoro-4-((7-(3-morpholinopropoxy)quinolin-4-yl)oxy)phenyl)-2-(4-fluorophenyl)-3-oxo-3,5,6,7-tetrahydro-2H-cyclopenta[c]pyridine-4-carboxamide], half-maximal inhibition (IC50) required 11.9 nM. The compound `Nc1nccc(Oc2ccc(NC(=O)c3c4c(cn(-c5ccc(F)cc5)c3=O)CCO4)cc2F)c1Cl` [Example 55, N-(4-((2-Amino-3-chloropyridin-4-yl)oxy)-3-fluorophenyl)-5-(4-fluorophenyl)-6-oxo-2,3,5,6-tetrahydrofuro[3,2-c]pyridine-7-carboxamide] came in with an IC50 of 2.24 nM. `O=C(Nc1ccc(Oc2ccnc3[nH]cnc23)c(F)c1)c1c2c(cn(-c3ccc(F)cc3)c1=O)CCO2` [Example 66, N-(4-((3H-imidazo[4,5-b]pyridin-7-yl)oxy)-3-fluorophenyl)-5-(4-fluorophenyl)-6-oxo-2,3,5,6-tetrahydrofuro[3,2-c]pyridine-7-carboxamide] had an IC50 of 8.63 nM. Turning to `Cc1cc2c(Oc3ccc(NC(=O)c4c5c(cn(-c6ccc(F)cc6)c4=O)CCO5)cc3F)ccnc2[nH]1` [Example 70, N-(3-Fluoro-4-((2-methyl-1H-pyrrolo[2,3-b]pyridin-4-yl)oxy)-3-fluorophenyl)-5-(4-fluorophenyl)-6-oxo-2,3,5,6-tetrahydrofuro[3,2-c]pyridine-7-carboxamide], the IC50 was 3.66 nM. For `COc1cc2nccc(Oc3ccc(NC(=O)c4c5c(cn(-c6cccc(F)c6)c4=O)CCO5)cc3F)c2cc1OC` [Example 43, N-(4-((6,7-Dimethoxyquinolin-4-yl)oxy)-3-fluorophenyl)-6-oxo-5-(3-fluorophenyl)-2,3,5,6-tetrahydrofuro[3,2-c]pyridine-7-carboxamide], the IC50 turned out to be 5.13 nM. `COc1cc2nccc(Oc3ccc(NC(=O)c4c5c(cn(-c6ccc(C(F)(F)F)cc6)c4=O)CCO5)cc3F)c2cc1OC` [Example 42, N-(4-((6,7-Dimethoxyquinolin-4-yl)oxy)-3-fluorophenyl)-6-oxo-5-(4-(trifluoromethyl)phenyl)-2,3,5,6-tetrahydrofuro[3,2-c]pyridine-7-carboxamide]: the IC50 is 30 nM.

Compound `O=C(Nc1ccc(Oc2ncnc3[nH]cnc23)c(F)c1)c1c2c(cn(-c3ccc(F)cc3)c1=O)CCO2` [Example 72, N-(4-((9H-purin-6-yl)oxy)-3-fluorophenyl)-5-(4-fluorophenyl)-6-oxo-2,3,5,6-tetrahydrofuro[3,2-c]pyridine-7-carboxamide] returned an IC50 of 46.2 nM.
